Experimental data: publication PMC10761696, “Avapritinib-based SAR studies unveil a binding pocket in KIT and PDGFRA” (Nature Communications, 2024)
Several values for one entry are separate records, joined by “and”; a condition that tells them apart may be missing. Equal entries are not always repeated. Where two headings read alike, the source gives them in different places.

What was measured:
[1] = ref WO2022/081626; cited from earlier work
[2] = target: T1, PDGFRA-D842V (Homo sapiens, UniProt P16234, D842V); test: Activity-based HTRF KinEASE assay, PDGFRA-D842V; format: biochemical
T1 construct: purchased Invitrogen PV4203 (lot #2343231B)

[3] = target: KIT-D816H (Homo sapiens, UniProt P10721, D816H); test: Activity-based HTRF KinEASE assay, KIT-D816H; format: biochemical
[4] = tested on: ZR-75-1; test: CellTiter-Glo (CTG) EC50, ZR-75-1 breast cancer control cell line; format: cell-based, human; settings: Homo sapiens
Procedure: (§1) Cell line authenticity was confirmed by STR analysis at Eurofins Genomics. All cell lines were tested regularly for mycoplasma contamination using the Mycoplasmacheck Service at Eurofins Genomics. […] Following incubation for 24 h in a humidified atmosphere at 37 °C and 5% CO2, cells were treated with inhibitors in serial dilutions ranging from 30 µM down to 0.1 nM using an Echo650 acoustic liquid handler (Beckman Coulter). Cell viability was analyzed on day 5 using the CellTiter-Glo® assay (Promega) using 500 ms integration time. The obtained data were normalized to the plate positive control (30 µM staurosporine) and negative control (DMSO) and subsequently analyzed and fitted with the Quattro Software Suite (Quattro Research) using a four-parameter logistic model. As quality control, the Z’-factor was calculated from 16 positive and negative control values. Only assay results showing a Z’-factor ≥0.5 were used for further analysis. All experimental points were measured in duplicates for each plate and were independently replicated in at least three plates.

[5] = tested on: MDA-MB-175VII; test: CellTiter-Glo (CTG) EC50, MDA-MB-175VII breast cancer control cell line; format: cell-based, human
Procedure: as §1

[6] = tested on: GIST-T1; test: CellTiter-Glo (CTG) GR50, GIST-T1; settings: for GI50: Homo sapiens
[7] = tested on: T1-T670I; test: CellTiter-Glo (CTG) GR50, T1-T670I; settings: Homo sapiens
[8] = tested on: T1-V654A; test: CellTiter-Glo (CTG) GR50, T1-V654A; settings: Homo sapiens
[9] = tested on: T1-a-5258; test: CellTiter-Glo (CTG) GR50, T1-a-5258; settings: Homo sapiens
[10] = tested on: T1-a-D842V; test: CellTiter-Glo (CTG) GR50, T1-a-D842V
[11] = tested on: SK-LMS-1; test: CellTiter-Glo (CTG) GR50, SK-LMS-1 control cell line; settings: for CTG GR50 SK-LMS-1, single determinations: raw data of Supp. Tab. 2, independent experiments, unit from Supp. Tab. 2; for CTG GR50 SK-LMS-1: mean ± s.d., n = 3, control cell line
[12] = tested on: GIST-48B; test: CellTiter-Glo (CTG) GR50, GIST-48B control cell line (off-target toxicity); settings: for ratio GIST-48B/ T1-a-D842V / GIST-48B/D842V: ratio of GR50 values; for GIST-48B/D842V: source data sheet
[13] = MDCKII-MDR1 permeability assay; settings: dog; for Papp B→A at 2 h, 10 µM: MDCK-MDR1
[14] = tested on: MDR1; test: MDCKII-MDR1 permeability assay; settings: dog; for efflux ratio at 2 h, 10 µM: MDCK-MDR1; for recovery at 2 h, 10 µM: MDCKII-MDR1, assay conc. 10
[15] = tested on: D842V-mutant gastrointestinal stromal tumors (GIST); settings: patients with D842V-mutant GIST; ref NAVIGATOR trial; cited from earlier work
[16] = tested on: T1-D816E; test: CellTiter-Glo (CTG) GR50, T1-D816E; settings: mean ± s.d., n ≥ 3
[17] = tested on: T1-a-G680R; test: CellTiter-Glo (CTG) GR50, T1-a-G680R; settings: raw data of Table 1, independent experiments; unit from Table 1
[18] = tested on: MDCKII-MDR1 cells; test: MDCKII-MDR1 permeability assay; settings: for permeability class of reference compound (Comment): reference compounds of the MDCKII-MDR1 assay
[19] = mean ± s.d., n ≥ 3, ATP at KM (14 µM), read-out: HTRF IC50 PDGFRA-D842V
[20] = raw data of Table 1, independent experiments 1-3, unit from Table 1, read-out: HTRF IC50 PDGFRA-D842V, single determinations
[21] = mean ± s.d., n ≥ 3, ATP at KM (12 µM), read-out: HTRF IC50 KIT-D816H
[22] = raw data of Table 1, independent experiments, unit from Table 1, read-out: HTRF IC50 KIT-D816H, single determinations
[23] = ZR-75-1, mean ± s.d., n = 3, control cell line, read-out: CTG EC50 ZR-75-1
[24] = ZR-75-1, raw data of Supp. Tab. 2, independent experiments, unit from Supp. Tab. 2, read-out: CTG EC50 ZR-75-1, single determinations
[25] = Homo sapiens, MDA-MB-175-VII, read-out: CTG EC50 MDA-MB-175VII, mean ± s.d., n = 3, control cell line
[26] = Homo sapiens, MDA-MB-175-VII, read-out: CTG EC50 MDA-MB-175VII, single determinations, raw data of Supp. Tab. 2, independent experiments, unit from Supp. Tab. 2
[27] = GISTT1, read-out: CTG GR50 GIST-T1, single determinations, raw data of Table 1, independent experiments, unit from Table 1
[28] = GISTT1, read-out: KIT CTG GR50 GIST-T1, mean ± s.d., n ≥ 3, GR50 half-maximal growth inhibition rate
[29] = read-out: CTG GR50 T1-T670I, single determinations, raw data of Supp. Tab. 1, independent experiments, unit from Supp. Tab. 1
[30] = read-out: KIT CTG GR50 T1-T670I, mean ± s.d., n ≥ 3
[31] = read-out: CTG GR50 T1-V654A, single determinations, raw data of Supp. Tab. 1, independent experiments, unit from Supp. Tab. 1
[32] = read-out: KIT CTG GR50 T1-V654A, mean ± s.d., n ≥ 3 (* n = 2 for ava)
[33] = read-out: CTG GR50 T1-a-5258, single determinations, raw data of Supp. Tab. 1, independent experiments, unit from Supp. Tab. 1
[34] = read-out: PDGFRA CTG GR50 T1-a-5258, mean ± s.d., n ≥ 3, triple mutant D842V, G652E, V658A
[35] = MDCK-MDR1, MDCKII-MDR1 (Papp A→B), at 10 µM, 2 h, 37 °C, unit inferred
[36] = MDCK-MDR1, Papp A->B, MDCKII-MDR1, assay conc. 10, apical to basolateral

Sequence of KIT-D816H (P10721 26-976 D816H): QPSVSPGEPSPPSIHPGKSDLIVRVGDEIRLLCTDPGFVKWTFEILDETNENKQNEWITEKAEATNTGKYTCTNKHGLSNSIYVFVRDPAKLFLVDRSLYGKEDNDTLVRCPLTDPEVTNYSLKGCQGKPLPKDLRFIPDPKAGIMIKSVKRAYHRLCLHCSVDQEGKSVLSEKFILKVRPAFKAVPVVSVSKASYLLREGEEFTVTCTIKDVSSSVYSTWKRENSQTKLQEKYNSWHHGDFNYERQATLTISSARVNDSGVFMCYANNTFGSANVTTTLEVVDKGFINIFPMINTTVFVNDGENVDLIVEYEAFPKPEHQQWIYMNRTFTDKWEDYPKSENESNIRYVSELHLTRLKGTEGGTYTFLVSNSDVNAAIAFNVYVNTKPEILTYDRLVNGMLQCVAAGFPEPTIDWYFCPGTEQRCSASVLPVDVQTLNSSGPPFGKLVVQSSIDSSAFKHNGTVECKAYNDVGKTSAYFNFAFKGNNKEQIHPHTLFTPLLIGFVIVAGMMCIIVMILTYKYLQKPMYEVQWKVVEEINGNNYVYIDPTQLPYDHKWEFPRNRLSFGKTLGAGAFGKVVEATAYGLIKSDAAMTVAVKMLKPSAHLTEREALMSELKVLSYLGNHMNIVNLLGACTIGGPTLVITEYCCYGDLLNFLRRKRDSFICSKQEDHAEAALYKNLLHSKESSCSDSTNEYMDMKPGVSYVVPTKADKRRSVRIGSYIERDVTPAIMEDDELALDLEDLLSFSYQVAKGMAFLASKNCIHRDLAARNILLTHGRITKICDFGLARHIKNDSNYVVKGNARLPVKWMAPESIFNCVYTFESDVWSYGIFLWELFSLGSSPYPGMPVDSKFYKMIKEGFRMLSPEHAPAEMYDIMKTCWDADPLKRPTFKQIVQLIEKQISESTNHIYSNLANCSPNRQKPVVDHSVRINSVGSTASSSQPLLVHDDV
T1 sequence (P16234 24-1089 D842V): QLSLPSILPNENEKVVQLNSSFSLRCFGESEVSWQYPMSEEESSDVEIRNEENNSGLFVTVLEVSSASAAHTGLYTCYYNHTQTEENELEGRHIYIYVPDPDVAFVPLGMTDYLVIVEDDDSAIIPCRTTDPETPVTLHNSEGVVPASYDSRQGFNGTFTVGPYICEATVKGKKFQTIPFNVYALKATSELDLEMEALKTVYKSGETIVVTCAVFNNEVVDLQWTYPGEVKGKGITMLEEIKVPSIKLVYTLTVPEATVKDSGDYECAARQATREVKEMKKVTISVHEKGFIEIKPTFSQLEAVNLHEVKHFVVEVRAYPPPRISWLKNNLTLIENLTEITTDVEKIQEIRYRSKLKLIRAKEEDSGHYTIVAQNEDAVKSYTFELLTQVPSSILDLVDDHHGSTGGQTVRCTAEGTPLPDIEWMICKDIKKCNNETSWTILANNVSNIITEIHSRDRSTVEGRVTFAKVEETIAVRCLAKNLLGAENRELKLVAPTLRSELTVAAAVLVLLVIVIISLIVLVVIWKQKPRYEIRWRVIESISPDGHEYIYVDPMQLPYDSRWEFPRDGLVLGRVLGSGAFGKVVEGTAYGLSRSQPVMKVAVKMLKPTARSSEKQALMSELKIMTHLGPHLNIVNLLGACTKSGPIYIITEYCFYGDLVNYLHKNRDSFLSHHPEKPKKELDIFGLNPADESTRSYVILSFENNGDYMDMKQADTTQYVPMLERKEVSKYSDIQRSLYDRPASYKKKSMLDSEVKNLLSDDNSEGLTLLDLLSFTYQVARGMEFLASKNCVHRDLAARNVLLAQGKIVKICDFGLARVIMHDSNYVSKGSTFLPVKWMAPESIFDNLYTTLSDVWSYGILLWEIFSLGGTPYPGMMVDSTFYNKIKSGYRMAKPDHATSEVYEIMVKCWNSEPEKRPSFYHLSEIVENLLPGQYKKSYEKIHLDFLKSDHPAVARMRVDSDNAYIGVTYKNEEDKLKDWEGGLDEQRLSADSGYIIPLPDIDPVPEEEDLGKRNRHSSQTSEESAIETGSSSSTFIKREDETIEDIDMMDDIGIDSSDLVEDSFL

SMILES	IC50 [2, 19]	IC50 [2, 20]	IC50 [3, 21] [nM]	IC50 [3, 22]	EC50 [4, 23] [nM]	EC50 [4, 24] [nM]	EC50 [5, 25] [nM]	EC50 [5, 26] [nM]	GI50 [6, 28] [nM]	GI50 [7, 30] [nM]	GI50 [8, 32] [nM]	GI50 [9, 33] [nM]	GI50 [9, 34] [nM]	CTG GR50 SK-LMS-1, single determinations [11]	ratio GIST-48B/ T1-a-D842V [12]	GIST-48B/D842V [12]	Papp B→A at 2 h, 10 µM [13] [×10⁻⁶ cm/s]	Papp A→B at 2 h, 10 µM [13, 35] [×10⁻⁶ cm/s]	CTG GR50 SK-LMS-1 [11]	further results
C[C@](N)(c1ccc(F)cc1)c1cnc(N2CCN(c3ncnn4cc(-c5cnn(CCO)c5)cc34)CC2)nc1 [BLU-263]	–	–	–	–	–	–	–	–	–	–	–	–	–	–	–	–	–	–	–	BBB permeability compared to avapritinib [1]: less BBB permeable compared to avapritinib
Cn1cc(-c2cc3c(N4CCC5(CC4)CN(c4ncc(Cc6ccccc6)cn4)C5)ncnn3c2)cn1 [Compound 7]	749 ± 142 nM	563 nM and 909 nM and 773 nM	204 ± 84	283 nM and 116 nM and 213 nM	≥ 10000	≥ 10000	≥ 10000	≥ 10000	709 ± 196	≥ 10000	6730 ± 439	9970	9520 ± 810	≥10 µM	1	1.22	–	–	–	GI50 [6, 27]: 824 nM; fold decrease in potency, GIST-T1 ([6]; comparator not clearly stated): ~ 17 fold; GI50 [7, 29]: ≥ 10000 nM; GI50 [8, 31]: 6130 nM; fold decrease in potency, T1-a-D842V ([10]; comparator not clearly stated): > 500 fold
COC(=O)N[C@@](C)(c1ccc(F)cc1)c1cnc(N2CCN(c3ncnn4cc(-c5cnn(C)c5)cc34)CC2)nc1 [Compound 12]	0.2 ± 0.1 nM	0.3 nM and 0.2 nM and 0.1 nM	0.6 ± 0.4	1.1 nM and 0.3 nM and 0.53 nM	≥ 10000	≥ 10000	≥ 10000	≥ 10000	60 ± 12	695 ± 135	474 ± 155	2400	2220 ± 350	6.084 µM and 5.919 µM and 10 µM	256	256	2.76	12.4	7.334 ± 2.31 µM and 7.334 µM	Papp A→B at 2 h, 10 µM [13, 36]: 12.4 ×10⁻⁶ cm/s; efflux ratio at 2 h, 10 µM [14]: 0.22; recovery at 2 h, 10 µM ([14]; MDCK-MDR1, Recovery A->B): 25.4%; recovery at 2 h, 10 µM ([14]; MDCK-MDR1, Recovery B->A): 49.7%; GI50 [6, 27]: 71 nM; GI50 [7, 29]: 620 nM
Cn1cc(-c2cc3c(N4CCN(c5ncc([C@@](C)(NC(=O)c6ccccc6)c6ccc(F)cc6)cn5)CC4)ncnn3c2)cn1 [Compound 13]	~0.2 nM and 0.2 nM	0.2 nM and 0.15 nM and 0.28 nM	2 ± 0.1	2.1 nM (2×) and 1.8 nM	≥ 10000	≥ 10000	≥ 10000	≥ 10000	287 ± 176	–	–	–	–	8.494 µM and 10 µM	196	196	0.47	3.5	9.498 ± 0.869 µM and 9.498 µM	Papp A→B at 2 h, 10 µM [13, 36]: 3.46 ×10⁻⁶ cm/s; efflux ratio at 2 h, 10 µM [14]: 0.13; recovery at 2 h, 10 µM ([14]; MDCK-MDR1, Recovery A->B): 81.4%; recovery at 2 h, 10 µM ([14]; MDCK-MDR1, Recovery B->A): 63.6%; fold loss of potency compared to avapritinib, T1-a-D842V ([10]; cellular assay): 3 fold; activity with respect to the control cell lines ([12]; control cell lines (Table 1, Supplementary Table 2)): completely inactive
Cn1cc(-c2cc3c(N4CCN(c5ncc([C@@](C)(N)c6ccc(F)cc6)cn5)CC4)ncnn3c2)cn1 [ava (1), avapritinib]	–	–	–	–	–	–	–	5700	36 ± 10	457 ± 240	357 ± 142	570	540 ± 30	5.269 µM and 10 µM	–	–	3.02	12.5	8.423 ± 2.731 µM and 8.423 µM	EC50 ([5]; read-out: CTG EC50 MDA-MB-175VII, single determinations, raw data of Supp. Tab. 2, independent experiments, unit from Supp. Tab. 2): 5760 nM and 5880 nM; EC50 ([5]; read-out: CTG EC50 MDA-MB-175VII, mean ± s.d., n = 3, control cell line): 5780 nM; overall response rates [15]: more than 90%; KIT CTG GR50 T1-D816E [16]: 67 ± 18 nM and 67 nM; GI50 [8, 31]: 256 nM; CTG GR50 T1-a-G680R, single determinations [17]: 1455 nM and 1460 nM
C[C@H]1O[C@@H](O[C@H]2[C@@H](O)C[C@H](O[C@H]3[C@@H](O)C[C@H](O[C@H]4CC[C@@]5(C)[C@H](CC[C@@H]6[C@@H]5C[C@@H](O)[C@]5(C)[C@@H](C7=CC(=O)OC7)CC[C@]65O)C4)O[C@@H]3C)O[C@@H]2C)C[C@H](O)[C@@H]1O [digoxin, reference compound]	–	–	–	–	–	–	–	–	–	–	–	–	–	–	–	–	15.4 ± 16	–	–	Papp A→B at 2 h, 10 µM ([13]; MDCK-MDR1, MDCKII-MDR1 (PappA→B), reference compounds, mean over routine assay runs): 1.9 ± 4.5 ×10⁻⁶ cm/s; permeability class of reference compound (Comment) [18]: efflux
CC(C)NCC(O)COc1cccc2ccccc12 (stereo not drawn) [propranolol, reference compound]	–	–	–	–	–	–	–	–	–	–	–	–	–	–	–	–	–	–	–	permeability class of reference compound (Comment) [18]: highly permeable; permeability class of reference compound (Comment) ([18]; listed as Propanolol): permeable; MDCKII-MDR1 (PappA→B) ([18]; reference compounds, mean over routine assay runs): 32 ± 10.3 10-6 cm/s
